Results taken from publication PMC11844072, “Novel 5,6-dichlorobenzimidazole derivatives as dual BRAFWT and BRAFV600E inhibitors: design, synthesis, anti-cancer activity and molecular dynamics simulations” (BMC Chemistry, 2025).

Legend:
Assay in all cases: NCI 60 single concentration growth inhibition
Format in all cases: cell-based, human
HOP-62 = settings: HOP-62, Non-small cell lung cancer
Method: (§1) The synthesized dichlorobenzimidazoles 10a–p were assayed for their influence on divers cancer cell lines according to the method presented in the Additional file A.
(§2) 5. Screening of cytotoxic activity against a panel of sixty human tumor cell lines
(§3) The selected compounds by NCI were evaluated for their anticancer activity in a two-stage process. First, these compounds were screened against the full NCI 60 cell lines panel at a single high dose of 10 µM. Then, the output from the single dose screen is reported as a mean graph. […]
(§4) at five different minimal concentrations.
(§5) Assay protocol. The human tumor cell lines of the cancer screening panel are grown in RPMI 1640 medium containing 5% fetal bovine serum and 2 mM L-glutamine. For a typical screening experiment, cells are inoculated into 96 well microtiter plates in 100 µL at plating densities ranging from 5000 to 40,000 cells/well depending on the doubling time of individual cell lines. After cell inoculation, the microtiter plates are incubated at 37 °C, 5% CO 2, 95% air and 100% relative humidity for 24 h prior to addition of the experimental drugs.
(§6) After 24 h, two plates of each cell line are fixed in situ with TCA, to represent a measurement of the cell population for each cell line at the time of drug addition (Tz). The experimental drugs are solubilized in dimethyl sulfoxide at 400-fold the desired final maximum test concentration and stored frozen prior to use. At the time of drug addition, an aliquot of frozen concentrate is thawed and diluted to twice the desired final maximum test concentration with complete medium containing 50 µg/mL gentamicin. Additional four, 10-fold or ½ log serial dilutions are made to provide a total of five drug concentrations plus control.
(§7) Aliquots of […] of these different drug dilutions are added to the appropriate microtiter wells already containing […] of medium, resulting in the required final drug concentrations.
(§8) Following drug addition, the plates are incubated for an additional 48 h at 37 °C, 5% CO 2, 95% air, and 100% relative humidity. For adherent cells, the assay is terminated by the addition of cold TCA.
(§9) Cells are fixed in situ by the gentle addition of 50 µL of cold 50% (w/v) TCA (final concentration, 10% TCA) and incubated for 60 min at 4 °C. The supernatant is discarded, and the plates are washed five times with tap water and air dried. Sulforhodamine B (SRB) solution ([…]) at 0.4% (w/v) in 1% acetic acid is added to each well, and plates are incubated for 10 min at room temperature. After staining, unbound dye is removed by washing five times with 1% acetic acid and the plates are air dried. Bound stain is subsequently solubilized with 10 mM trizma base, and the absorbance is read on an automated plate reader at a wavelength of 515 nm. For suspension cells, the methodology is […]
(§10) the same except that the assay is terminated by fixing settled cells at the bottom of the wells by gently adding 50 µl of 80% TCA (final concentration, 16% TCA). Using the seven absorbance measurements [time zero, (Tz), control growth, (C), and test growth in the presence of drug at the five concentration levels (Ti)], the percentage growth is calculated at each of the drug concentrations […]
(§11) Percentage growth inhibition is calculated as: [(Ti Tz)/(C–Tz)] x 100 for concentrations for which Ti>/=Tz and [(Ti-Tz)/Tz] x 100 for concentrations for which Ti < Tz.
(§12) Three dose response parameters are calculated for each experimental agent. Growth […]
(§13) concentration resulting in a 50% reduction in the net protein increase (as measured by SRB staining) in control cells during the drug incubation. The drug concentration resulting in total growth inhibition (TGI) is calculated from Ti = Tz. […]
(§14) reduction in the measured protein at the end of the drug treatment as compared to that at the beginning) indicating a net loss of cells following treatment is calculated from [(Ti–Tz)/Tz] x 100 =
(§15) _50. Values are calculated for each of these three parameters if the level of activity is reached; […]

HL-60(TB) = settings: Leukemia
Method: as §1, §2, §3, §4, §5, §6, §7, §8, §9, §10, §11, §12, §13, §14, §15

T-47D = settings: Breast cancer
Method: as §1, §2, §3, §4, §5, §6, §7, §8, §9, §10, §11, §12, §13, §14, §15

UACC-257 = settings: UACC-257, Melanoma
Method: as §1, §2, §3, §4, §5, §6, §7, §8, §9, §10, §11, §12, §13, §14, §15

OVCAR-5 = settings: OVCAR-5, Ovarian cancer
Method: as §1, §2, §3, §4, §5, §6, §7, §8, §9, §10, §11, §12, §13, §14, §15

SF-539 = settings: SF-539, CNS cancer
Method: as §1, §2, §3, §4, §5, §6, §7, §8, §9, §10, §11, §12, §13, §14, §15

786-0 = settings: 786-0, Renal cancer
Method: as §1, §2, §3, §4, §5, §6, §7, §8, §9, §10, §11, §12, §13, §14, §15

CCRF-CEM = settings: Leukemia
Method: as §1, §2, §3, §4, §5, §6, §7, §8, §9, §10, §11, §12, §13, §14, §15

HS 578T = settings: Breast cancer
Method: as §1, §2, §3, §4, §5, §6, §7, §8, §9, §10, §11, §12, §13, §14, §15

UACC-62 = settings: UACC-62, Melanoma
Method: as §1, §2, §3, §4, §5, §6, §7, §8, §9, §10, §11, §12, §13, §14, §15

MDA-MB-231/ATCC = settings: Breast cancer
Method: as §1, §2, §3, §4, §5, §6, §7, §8, §9, §10, §11, §12, §13, §14, §15

HCT-116 = settings: HCT-116, Colon cancer
Method: as §1, §2, §3, §4, §5, §6, §7, §8, §9, §10, §11, §12, §13, §14, §15

OVCAR-8 = settings: OVCAR-8, Ovarian cancer
Method: as §1, §2, §3, §4, §5, §6, §7, §8, §9, §10, §11, §12, §13, §14, §15

CAKI-1 = settings: CAKI-1, Renal cancer
Method: as §1, §2, §3, §4, §5, §6, §7, §8, §9, §10, §11, §12, §13, §14, §15

SK-MEL-28 = settings: SK-MEL-28, Melanoma
Method: as §1, §2, §3, §4, §5, §6, §7, §8, §9, §10, §11, §12, §13, §14, §15

A498 = settings: A498, Renal cancer
Method: as §1, §2, §3, §4, §5, §6, §7, §8, §9, §10, §11, §12, §13, §14, §15

SN12C = settings: Renal cancer
Method: as §1, §2, §3, §4, §5, §6, §7, §8, §9, §10, §11, §12, §13, §14, §15

NCI-H23 = settings: NCI-H23, Non-small cell lung cancer
Method: as §1, §2, §3, §4, §5, §6, §7, §8, §9, §10, §11, §12, §13, §14, §15

EKVX = settings: Non-small cell lung cancer
Method: as §1, §2, §3, §4, §5, §6, §7, §8, §9, §10, §11, §12, §13, §14, §15

BT-549 = settings: BT-549, Breast cancer
Method: as §1, §2, §3, §4, §5, §6, §7, §8, §9, §10, §11, §12, §13, §14, §15

ACHN = settings: Renal cancer
Method: as §1, §2, §3, §4, §5, §6, §7, §8, §9, §10, §11, §12, §13, §14, §15

MCF7 = settings: MCF7, Breast cancer
Method: as §1, §2, §3, §4, §5, §6, §7, §8, §9, §10, §11, §12, §13, §14, §15

Question: Which results are given for COc1ccc(-c2nc3cc(Cl)c(Cl)cc3n2CC(=O)NN=Cc2cccc(OCC(=O)O)c2)cc1 [Compound 10e, 2-(3-((2-(2-(5,6-Dichloro-2-(4-methoxyphenyl)-1H-benzo[d]imidazol-1-yl)acetyl)hydrazono)methyl)phenoxy)acetic acid]?
Answer: inhibition at 10 µM (HOP-62; Homo sapiens, read-out: GI%): < 5%; inhibition at 10 µM (HL-60(TB); Homo sapiens, read-out: GI%): < 5%; inhibition at 10 µM (T-47D; Homo sapiens, T47D, read-out: GI%): < 5%; inhibition at 10 µM (UACC-257; Homo sapiens, read-out: GI%): < 5%; inhibition at 10 µM (OVCAR-5; Homo sapiens, read-out: GI%): < 5%; inhibition at 10 µM (SF-539; Homo sapiens, read-out: GI%): < 5%; inhibition at 10 µM (786-0; Homo sapiens, read-out: GI%): < 5%; inhibition at 10 µM (CCRF-CEM; Homo sapiens, read-out: GI%): < 5%; inhibition at 10 µM (HS 578T; Homo sapiens, read-out: GI%): 7.11%; inhibition at 10 µM (UACC-62; Homo sapiens, read-out: GI%): < 5%; inhibition at 10 µM (MDA-MB-231/ATCC; Homo sapiens, read-out: GI%): < 5%; inhibition at 10 µM (HCT-116; Homo sapiens, read-out: GI%): < 5%; inhibition at 10 µM (OVCAR-8; Homo sapiens, read-out: GI%): < 5%; inhibition at 10 µM (CAKI-1; Homo sapiens, read-out: GI%): < 5%; inhibition at 10 µM (SK-MEL-28; Homo sapiens, read-out: GI%): < 5%; inhibition at 10 µM (A498; Homo sapiens, read-out: GI%): < 5%; inhibition at 10 µM (SN12C; Homo sapiens, read-out: GI%): < 5%; inhibition at 10 µM (NCI-H23; Homo sapiens, read-out: GI%): 5.12%; inhibition at 10 µM (EKVX; Homo sapiens, read-out: GI%): < 5%; inhibition at 10 µM (BT-549; Homo sapiens, read-out: GI%): < 5%; inhibition at 10 µM (ACHN; Homo sapiens, read-out: GI%): < 5%; inhibition at 10 µM (MCF7; Homo sapiens, read-out: GI%): 13.6%

Question: For “2-(5-((2-(2-(5,6-Dichloro-2-(4-methoxyphenyl)-1H-benzo[d]imidazol-1-yl)acetyl)hydrazono)methyl)-2-methoxyphenoxy)acetic acid [Compound 10n]”, which GI% (HOP-62; 10 μM) is on record?
Answer: – (GI% < 5%)

Question: And the GI% (HL-60(TB); 10 μM)?
Answer: – (GI% < 5%)

Question: And the GI% (T-47D; 10 μM)?
Answer: – (GI% < 5%)

Question: What about the GI% (UACC-257; 10 μM) of the same compound?
Answer: – (GI% < 5%)

Question: What about the GI% (OVCAR-5; 10 μM) of the same compound?
Answer: – (GI% < 5%)

Question: And the GI% (SF-539; 10 μM)?
Answer: – (GI% < 5%)

Question: And the GI% (786-0; 10 μM)?
Answer: – (GI% < 5%)

Question: And the GI% (CCRF-CEM; 10 μM)?
Answer: – (GI% < 5%)

Question: And the GI% (HS 578T; 10 μM)?
Answer: 6.21%

Question: And the GI% (UACC-62; 10 μM)?
Answer: 9.71%

Question: And the GI% (MDA-MB-231/ATCC; 10 μM)?
Answer: 11.50%

Question: And the GI% (HCT-116; 10 μM)?
Answer: 6.00%

Question: And the GI% (OVCAR-8; 10 μM)?
Answer: – (GI% < 5%)

Question: And the GI% (CAKI-1; 10 μM)?
Answer: – (GI% < 5%)

Question: What about the GI% (SK-MEL-28; 10 μM) of the same compound?
Answer: – (GI% < 5%)

Question: What about the GI% (A498; 10 μM) of the same compound?
Answer: – (GI% < 5%)

Question: What about the GI% (SN12C; 10 μM) of the same compound?
Answer: 5.05%

Question: And the GI% (NCI-H23; 10 μM)?
Answer: 9.67%

Question: And the GI% (EKVX; 10 μM)?
Answer: – (GI% < 5%)

Question: And the GI% (BT-549; 10 μM)?
Answer: – (GI% < 5%)

Question: And the GI% (ACHN; 10 μM)?
Answer: – (GI% < 5%)

Question: What about the GI% (MCF7; 10 μM) of the same compound?
Answer: 14.21%
